Test: xn = mol fraction of the nth substance listed

CC(C)CCO + COc1ccccc1
viscosity [mPa·s], 101.33 kPa
Conditions | x2 = 0.1002 | x2 = 0.2 | x2 = 0.3005 | x2 = 0.3997 | x2 = 0.5004 | x2 = 0.6014 | x2 = 0.7004 | x2 = 0.8003 | x2 = 0.9008
303.15 K | 2.52 | 2.023 | 1.657 | 1.401 | 1.216 | 1.087 | 0.999 | 0.944 | 0.916
313.15 K | 1.905 | 1.545 | 1.283 | 1.101 | 0.974 | 0.893 | 0.843 | 0.816 | 0.801
323.15 K | 1.484 | 1.224 | 1.036 | 0.908 | 0.823 | 0.769 | 0.735 | 0.715 | 0.701

CNC(C)=O + CS(C)=O
313 K, 101 kPa
Conditions | viscosity [mPa·s]
x2 = 0.0743 | 2.725
x2 = 0.177 | 2.42
x2 = 0.2759 | 2.198
x2 = 0.3801 | 2.01
x2 = 0.4764 | 1.888
x2 = 0.5737 | 1.78
x2 = 0.6725 | 1.696
x2 = 0.7647 | 1.626
x2 = 0.8734 | 1.567
x2 = 0.9723 | 1.522

CNCCO + CS(C)=O
viscosity [mPa·s], 101.3 kPa
Conditions | x1 = 0.1038 | x1 = 0.2066 | x1 = 0.3084 | x1 = 0.4095 | x1 = 0.5101 | x1 = 0.6095 | x1 = 0.7084 | x1 = 0.8064 | x1 = 0.9035
293.15 K | 2.286 | 2.433 | 2.768 | 3.144 | 3.804 | 4.512 | 5.755 | 7.432 | 9.786
298.15 K | 2.054 | 2.173 | 2.45 | 2.754 | 3.293 | 3.852 | 4.836 | 6.143 | 7.947
303.15 K | 1.858 | 1.956 | 2.186 | 2.435 | 2.877 | 3.327 | 4.116 | 5.151 | 6.549
308.15 K | 1.691 | 1.771 | 1.964 | 2.168 | 2.537 | 2.905 | 3.542 | 4.368 | 5.476
313.15 K | 1.547 | 1.613 | 1.776 | 1.946 | 2.254 | 2.555 | 3.077 | 3.745 | 4.627
318.15 K | 1.419 | 1.481 | 1.615 | 1.755 | 2.016 | 2.264 | 2.697 | 3.241 | 3.954
323.15 K | 1.309 | 1.361 | 1.469 | 1.594 | 1.815 | 2.044 | 2.383 | 2.83 | 3.41

From the CheMixHub viscosity set
